Results on 37 molecules are retold here after patent US9193731B2, “Antimicrobial compounds and methods of making and using the same” (Melinta Therapeutics, Inc., priority 2009, dated 2015).

This assay deals with Escherichia coli strain ATCC25922. Briefly: standard microdilution assay to determine minimum inhibitory concentrations (MICs). Type of assay: cell-based. The following applies: for E. coli ATCC25922 MIC: Escherichia coli strain ATCC25922, microdilution; for MIC: Escherichia coli, ATCC25922, Escherichia coli strain ATCC25922, microdilution, read-out: E. coli ATCC25922 MIC. The essentials: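 Broth microdilution MIC against E. coli ATCC25922, following CLSI protocols, typically in a 100 microliter final volume. Results reported as +/− relative to a 16 micrograms/ml cutoff.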
In general terms: In broth dilution the organism is exposed to a series of concentrations in liquid medium.

Consider `N=C(N)NCCCNCc1ccc(-n2cc3cc(C4CCCN(C(=O)CCCN)C4)[nH]c3nc2=O)cc1` (stereo not shown) [Compound 1406], for which the “E. coli ATCC25922 MIC” value is “+ (a “+” indicates that the compound has an MIC value of 16 micrograms/ml or less)”. One may read the MIC as the smallest concentration in the dilution series that meets the test's criterion for growth inhibition. With `N=C(N)NCCCNCc1ccc(-c2cn3cc(-c4ccc(C(=O)N5CC6CC5CN6)cc4)[nH]c3nc2=O)cc1` (stereo not shown) [Compound 745], the MIC is < 16 µg/mL. With `N=C(N)NCCCNCc1ccc(-n2cc3cc(-c4ccc(Cl)c(CCCCN)c4)[nH]c3nc2=O)cc1` [Compound 2089a], the “E. coli ATCC25922 MIC” value is “+ (a “+” indicates that the compound has an MIC value of 16 micrograms/ml or less)”. As for `N=C(N)NCCCNC(=O)c1ccc(-n2cc3cc(-c4cc(CCCCN)cc(OC(F)(F)F)c4)[nH]c3nc2=O)cc1` [Compound 2048a], the “E. coli ATCC25922 MIC” value is “+ (a “+” indicates that the compound has an MIC value of 16 micrograms/ml or less)”. Regarding `COCc1cc(OCC(F)CN)cc(-c2cc3cn(-c4ccc(CNCCCNC(=N)N)cc4)c(=O)nc3[nH]2)c1` (stereo not shown) [Compound 2036a], the “E. coli ATCC25922 MIC” value is “+ (a “+” indicates that the compound has an MIC value of 16 micrograms/ml or less)”. With `N=C(N)NCCCNCc1ccc(-n2cc3cc(C4CCCN(CCCF)C4)[nH]c3nc2=O)cc1` (stereo not shown) [Compound 2017a], the MIC was < 16 µg/mL. Turning to `CN(C)Cc1ccc(-n2cc3cc(-c4ccc(S(=O)(=O)N(CCCC5CCCC5)C5CCNCC5)cc4)[nH]c3nc2=O)cc1` [Compound 1000], the “E. coli ATCC25922 MIC” value is “− (a “−” indicates that the compound has an MIC value greater than 16 micrograms/ml)”. With `CN1C2CCC1CC(NC(=O)c1ccc(-c3cc4cn(-c5ccc(CN(CCCN)CCCN)cc5)c(=O)nc4[nH]3)cc1)C2` (stereo not shown) [Compound 206], the minimal inhibitory concentration (MIC) is < 16 µg/mL. For `N=C(N)NCCCNCc1ccc(-n2cc3cc(-c4ccc(S(=O)(=O)N(CCCc5c[nH]nc5C(F)(F)F)C5CCNCC5)cc4)[nH]c3nc2=O)cc1` [Compound 897], the “E. coli ATCC25922 MIC” value is “+ (a “+” indicates that the compound has an MIC value of 16 micrograms/ml or less)”.

In the case of `NCCCNCc1ccc(-n2cc3c(nc2=O)[nH]c2ccccc23)cc1` [Compound 335], the MIC is > 16 µg/mL.

As to `N=C(N)NCCCNCc1ccc(-c2cn3cc(-c4ccc(C(=O)NC5CCNC5)cc4)[nH]c3nc2=O)cc1` (stereo not shown) [Compound 705], the MIC was < 16 µg/mL. Turning to `N=C(N)NCCCNCc1ccc(-n2cc3cc(-c4cccc(OCC5(CN)CC5)c4)[nH]c3nc2=O)cc1` [Compound 1413], the “E. coli ATCC25922 MIC” value is “+ (a “+” indicates that the compound has an MIC value of 16 micrograms/ml or less)”. Regarding `N=C(N)NCCCNCCCn1cc2cc(-c3ccc(S(=O)(=O)NC4CCNCC4)cc3)[nH]c2nc1=O` [Compound 1059], the “E. coli ATCC25922 MIC” value is “+ (a “+” indicates that the compound has an MIC value of 16 micrograms/ml or less)”. Same read-out and setting: as for `CN(C)Cc1ccc(-n2cc3cc(-c4ccc(S(=O)(=O)N(CC5CC5)C5CCNCC5)cc4)[nH]c3nc2=O)cc1` [Compound 1001], the entry is “− (a “−” indicates that the compound has an MIC value greater than 16 micrograms/ml)”. Consider `CNCc1ccc(-n2cc3cc(-c4ccc(S(=O)(=O)N(CCCN5CCCC(O)C5)C5CCNCC5)cc4)[nH]c3nc2=O)cc1` (stereo not shown) [Compound 1079], for which the MIC is > 16 µg/mL. Take `N=C(N)NCCCNCc1ccc(-n2cc3cc(C4C[C@@H](N)[C@@H](CO)O4)[nH]c3nc2=O)cc1` (stereo partly shown) [Compound 1245]: the minimal inhibitory concentration (MIC) is < 16 µg/mL. Take `N=C(N)NCCCNCc1ccc(-c2cn3cc(-c4ccc(C(=O)N5CCC(F)(F)CC5)cc4)[nH]c3nc2=O)cc1` [Compound 704]: the minimum inhibitory concentration (MIC) was > 16 µg/mL. For the molecule `NCc1ccc(-n2cc3cc(-c4cccc(S(=O)(=O)N(CCn5nccc5N)C5CCNCC5)c4)[nH]c3nc2=O)cc1` [Compound 1248], the MIC is > 16 µg/mL. For the molecule `CSCCN(C1CCNCC1)S(=O)(=O)c1ccc(-c2cc3cn(-c4ccc(CN(CCCN)CCCN)cc4)c(=O)nc3[nH]2)cc1` [Compound 232], the minimum inhibitory concentration (MIC) was < 16 µg/mL. Take `N=C(N)NCCCNCc1ccc(-n2cc3cc(C4CCCN(C(=N)N)C4)[nH]c3nc2=O)cc1` (stereo not shown) [Compound 1211]: the minimum inhibitory concentration (MIC) was < 16 µg/mL. Take `N=C(N)NCCCNCc1ccc(-n2cc3cc(-c4ccc(C(=O)NC5CNC5)cc4)[nH]c3nc2=O)cc1` [Compound 1412]: the “E. coli ATCC25922 MIC” value is on record as “+ (a “+” indicates that the compound has an MIC value of 16 micrograms/ml or less)”.

With `CN(CCO)C(=O)c1ccc(-c2cn3cc(-c4ccc(CNCCCNC(=N)N)cc4)c(=O)nc3[nH]2)cc1` [Compound 720], the minimum inhibitory concentration (MIC) is < 16 µg/mL. Consider `N=C(N)NCCCN1CC=C(n2cc3cc(-c4ccc(S(=O)(=O)N(Cc5ccc6nonc6c5)C5CCNCC5)cc4)[nH]c3nc2=O)CC1` [Compound 1004], for which the “E. coli ATCC25922 MIC” value is “+ (a “+” indicates that the compound has an MIC value of 16 micrograms/ml or less)”. Consider `N=C(N)NCCCNCc1ccc(-c2cn3nc(C4CC4)[nH]c3nc2=O)cc1` [Compound 661], for which the MIC was > 16 µg/mL.

Turning to `NCc1ccc(-n2cc3cc(-c4ccc(S(=O)(=O)N(CCCn5ccc(C(F)(F)F)n5)C5CCNCC5)cc4)[nH]c3nc2=O)cc1` [Compound 1002], the “E. coli ATCC25922 MIC” value is “− (a “−” indicates that the compound has an MIC value greater than 16 micrograms/ml)”. Regarding `CN1CCN(C(=O)c2ccc(-c3cn4cc(-c5ccc(CNCCCN)cc5)c(=O)nc4[nH]3)cc2)CC1` [Compound 699], the minimum inhibitory concentration (MIC) was > 16 µg/mL.

Take `N=C(N)NCCCNCc1ccc(-n2cc3cc(-c4ccc(S(=O)(=O)N(CC5CCOCC5)C5CCCNC5)cc4)[nH]c3nc2=O)cc1` (single isomer, unassigned) [Compound 845]: the “E. coli ATCC25922 MIC” value is listed as “+ (a “+” indicates that the compound has an MIC value of 16 micrograms/ml or less)”. Take `NCCCNCc1ccc(-c2cn3cc[nH]c3nc2=O)cc1` [Compound 563, 6-{4-[(3-Amino-propylamino)-methyl]-phenyl}-1H-imidazo[1,2-a]pyrimidin-7-one]: the MIC is > 16 µg/mL. `N=C(N)NCCCNCc1ccc(C2N=c3cc(C4CNCCO4)[nH]c3=NC2=O)cc1` (stereo not shown) [Compound 1329]: the minimum inhibitory concentration (MIC) is > 16 µg/mL. Take `CC(=O)NCCCN1CCCC(c2cc3cn(-c4ccc(CNCCCNC(=N)N)cc4)c(=O)nc3[nH]2)C1` (stereo not shown) [Compound 2021a]: the minimal inhibitory concentration (MIC) is > 16 µg/mL.

In the case of `N=C(N)CCCOc1cccc(-c2cc3cn(-c4ccc(CN)cc4)c(=O)nc3[nH]2)c1` [Compound 1150], the minimum inhibitory concentration (MIC) is > 16 µg/mL.

Consider `N=C(N)NCCCNCc1ccc(-n2cc3cc(-c4cccc(OCC(CN)OCC(F)(F)F)c4)[nH]c3nc2=O)cc1` (stereo not shown) [Compound 1455], for which the “E. coli ATCC25922 MIC” value is given as “+ (a “+” indicates that the compound has an MIC value of 16 micrograms/ml or less)”. For `NCc1ccc(-n2cc3cc(-c4ccccc4OCCO)[nH]c3nc2=O)cc1` [Compound 1088], the MIC is > 16 µg/mL. As to `N=C(N)CCCOc1cccc(-c2cc3cn(-c4ccc(CNCCCN)cc4)c(=O)nc3[nH]2)c1` [Compound 1216], the MIC was < 16 µg/mL.

As for `N=C(N)NCCCNCc1ccc(-c2cn3cc[nH]c3nc2=O)cc1` [Compound 564, N-{3-[4-(7-Oxo-1,7-dihydro-imidazo[1,2-a]pyrimidin-6-yl)-benzylamino]-propyl}-guanidine], the MIC was < 16 µg/mL.

Take `O=c1nc2[nH]c(-c3ccc(S(=O)(=O)NC4CCNCC4)cc3F)cc2cn1-c1ccc(CNCCCCl)cc1` [Compound 250]: the minimum inhibitory concentration (MIC) is > 16 µg/mL. On to `N=C(N)NCCCNCc1ccc(-n2cc3cc(-c4ccc(S(=O)(=O)N(Cc5ccc(Cl)c(Cl)c5)C5CCNCC5)cc4)[nH]c3nc2=O)cc1` [Compound 725], for which the MIC was < 16 µg/mL.
